Molecules are shown by their SMILES. The source made the active and inactive calls. No cut-off for these calls is given here. A value given as a limit tells only on which side of the number the result lay.

Broadly, the IC50 is the point on the concentration scale where inhibition reaches its midpoint.

For assay [1], the system named is P388. The assay can be described thus: Cytotoxicity against mouse P388 cells. It counts as functional, cell-based.
Assay [2] deals with Poliovirus 1. The assay can be described thus: Antiviral activity against Human poliovirus 1 at 40 ug/well. It counts as functional, organism-based.
The subject of assay [3] is Bacillus subtilis. The assay can be described thus: Antibacterial activity against Bacillus subtilis at 60 ug/disk. It counts as functional. The conditions noted are these: for zone of inhibition at 60 µg/disc: read-out: IZ.
In assay [4] the test system is Trichophyton mentagrophytes. The assay can be described thus: Antifungal activity against Trichophyton mentagrophytes at 60 ug/disk. It counts as functional. The conditions noted are these: for zone of inhibition at 60 µg/disc: read-out: IZ.

On to `COc1cc([C@H]2[C@@H](O)N(C)C(=O)[C@]23CCC(=O)N3C)c(Br)cc1Br` [AMATHASPIRAMIDE B], for which the IC50 in assay [1] was above 12.5 µg/mL. In addition, the outcome in assay [2], in assay [3] and in assay [4] was inactive.
For `COc1cc([C@H]2[C@@H](O)N(C)C(=O)[C@]23CCCN3)c(Br)cc1Br` [AMATHASPIRAMIDE C], the IC50 in assay [1] is above 12.5 µg/mL. Moreover, the result in assay [2], in assay [3] and in assay [4] was inactive.
Take `COc1cc([C@H]2[C@@H](O)N(C)C(=O)[C@]23CCC=N3)c(Br)cc1Br` [AMATHASPIRAMIDE E]: in assay [1], the IC50 was above 12.5 µg/mL. For the same molecule, the outcome in assay [2] was Active. Besides, the zone of inhibition at 60 µg/disc in assay [3] and in assay [4] was 1 mm throughout.
As to `COc1cc([C@H]2[C@@H](O)N(C)C(=O)[C@]23CCCN3C)c(Br)cc1Br` [AMATHASPIRAMIDE A], the IC50 in assay [1] was above 12.5 µg/mL. Moreover, the zone of inhibition at 60 µg/disc in assay [3] and in assay [4] was 1 mm each time.
